Laboratory results published in ChEMBL document CHEMBL1201862, “PubChem BioAssay data set” (2004).
Activity calls are given as the source filed them.

What was measured:
[1] = cytotoxicity toward NIH3T3 fibroblasts, dose response, counter-screen, cell-based, ATP luminescence, mouse fibroblasts (AID 2010); type: functional;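 note: cells exposed to compound for about 90 hours before reading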
[2] = biological target: Peroxisome proliferator-activated receptor gamma/Nuclear receptor corepressor 2 (Homo sapiens, UniProt P37231+Q9Y618); type: functional
Sequence of Peroxisome proliferator-activated receptor gamma/Nuclear receptor corepressor 2 (P37231 whole entry): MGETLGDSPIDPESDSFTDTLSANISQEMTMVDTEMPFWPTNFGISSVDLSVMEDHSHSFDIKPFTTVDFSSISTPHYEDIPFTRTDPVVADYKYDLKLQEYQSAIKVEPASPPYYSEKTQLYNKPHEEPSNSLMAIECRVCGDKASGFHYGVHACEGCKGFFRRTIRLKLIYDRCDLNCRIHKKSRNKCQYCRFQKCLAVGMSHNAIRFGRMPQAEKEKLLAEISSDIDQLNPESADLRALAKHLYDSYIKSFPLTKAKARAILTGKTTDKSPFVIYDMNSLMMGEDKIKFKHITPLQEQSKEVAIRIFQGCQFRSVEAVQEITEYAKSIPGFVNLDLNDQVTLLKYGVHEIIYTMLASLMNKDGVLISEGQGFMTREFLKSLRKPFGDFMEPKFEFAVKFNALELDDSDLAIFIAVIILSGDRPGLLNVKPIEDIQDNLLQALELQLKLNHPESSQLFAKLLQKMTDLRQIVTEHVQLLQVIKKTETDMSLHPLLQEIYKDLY
Sequence of Peroxisome proliferator-activated receptor gamma/Nuclear receptor corepressor 2 (Q9Y618 whole entry): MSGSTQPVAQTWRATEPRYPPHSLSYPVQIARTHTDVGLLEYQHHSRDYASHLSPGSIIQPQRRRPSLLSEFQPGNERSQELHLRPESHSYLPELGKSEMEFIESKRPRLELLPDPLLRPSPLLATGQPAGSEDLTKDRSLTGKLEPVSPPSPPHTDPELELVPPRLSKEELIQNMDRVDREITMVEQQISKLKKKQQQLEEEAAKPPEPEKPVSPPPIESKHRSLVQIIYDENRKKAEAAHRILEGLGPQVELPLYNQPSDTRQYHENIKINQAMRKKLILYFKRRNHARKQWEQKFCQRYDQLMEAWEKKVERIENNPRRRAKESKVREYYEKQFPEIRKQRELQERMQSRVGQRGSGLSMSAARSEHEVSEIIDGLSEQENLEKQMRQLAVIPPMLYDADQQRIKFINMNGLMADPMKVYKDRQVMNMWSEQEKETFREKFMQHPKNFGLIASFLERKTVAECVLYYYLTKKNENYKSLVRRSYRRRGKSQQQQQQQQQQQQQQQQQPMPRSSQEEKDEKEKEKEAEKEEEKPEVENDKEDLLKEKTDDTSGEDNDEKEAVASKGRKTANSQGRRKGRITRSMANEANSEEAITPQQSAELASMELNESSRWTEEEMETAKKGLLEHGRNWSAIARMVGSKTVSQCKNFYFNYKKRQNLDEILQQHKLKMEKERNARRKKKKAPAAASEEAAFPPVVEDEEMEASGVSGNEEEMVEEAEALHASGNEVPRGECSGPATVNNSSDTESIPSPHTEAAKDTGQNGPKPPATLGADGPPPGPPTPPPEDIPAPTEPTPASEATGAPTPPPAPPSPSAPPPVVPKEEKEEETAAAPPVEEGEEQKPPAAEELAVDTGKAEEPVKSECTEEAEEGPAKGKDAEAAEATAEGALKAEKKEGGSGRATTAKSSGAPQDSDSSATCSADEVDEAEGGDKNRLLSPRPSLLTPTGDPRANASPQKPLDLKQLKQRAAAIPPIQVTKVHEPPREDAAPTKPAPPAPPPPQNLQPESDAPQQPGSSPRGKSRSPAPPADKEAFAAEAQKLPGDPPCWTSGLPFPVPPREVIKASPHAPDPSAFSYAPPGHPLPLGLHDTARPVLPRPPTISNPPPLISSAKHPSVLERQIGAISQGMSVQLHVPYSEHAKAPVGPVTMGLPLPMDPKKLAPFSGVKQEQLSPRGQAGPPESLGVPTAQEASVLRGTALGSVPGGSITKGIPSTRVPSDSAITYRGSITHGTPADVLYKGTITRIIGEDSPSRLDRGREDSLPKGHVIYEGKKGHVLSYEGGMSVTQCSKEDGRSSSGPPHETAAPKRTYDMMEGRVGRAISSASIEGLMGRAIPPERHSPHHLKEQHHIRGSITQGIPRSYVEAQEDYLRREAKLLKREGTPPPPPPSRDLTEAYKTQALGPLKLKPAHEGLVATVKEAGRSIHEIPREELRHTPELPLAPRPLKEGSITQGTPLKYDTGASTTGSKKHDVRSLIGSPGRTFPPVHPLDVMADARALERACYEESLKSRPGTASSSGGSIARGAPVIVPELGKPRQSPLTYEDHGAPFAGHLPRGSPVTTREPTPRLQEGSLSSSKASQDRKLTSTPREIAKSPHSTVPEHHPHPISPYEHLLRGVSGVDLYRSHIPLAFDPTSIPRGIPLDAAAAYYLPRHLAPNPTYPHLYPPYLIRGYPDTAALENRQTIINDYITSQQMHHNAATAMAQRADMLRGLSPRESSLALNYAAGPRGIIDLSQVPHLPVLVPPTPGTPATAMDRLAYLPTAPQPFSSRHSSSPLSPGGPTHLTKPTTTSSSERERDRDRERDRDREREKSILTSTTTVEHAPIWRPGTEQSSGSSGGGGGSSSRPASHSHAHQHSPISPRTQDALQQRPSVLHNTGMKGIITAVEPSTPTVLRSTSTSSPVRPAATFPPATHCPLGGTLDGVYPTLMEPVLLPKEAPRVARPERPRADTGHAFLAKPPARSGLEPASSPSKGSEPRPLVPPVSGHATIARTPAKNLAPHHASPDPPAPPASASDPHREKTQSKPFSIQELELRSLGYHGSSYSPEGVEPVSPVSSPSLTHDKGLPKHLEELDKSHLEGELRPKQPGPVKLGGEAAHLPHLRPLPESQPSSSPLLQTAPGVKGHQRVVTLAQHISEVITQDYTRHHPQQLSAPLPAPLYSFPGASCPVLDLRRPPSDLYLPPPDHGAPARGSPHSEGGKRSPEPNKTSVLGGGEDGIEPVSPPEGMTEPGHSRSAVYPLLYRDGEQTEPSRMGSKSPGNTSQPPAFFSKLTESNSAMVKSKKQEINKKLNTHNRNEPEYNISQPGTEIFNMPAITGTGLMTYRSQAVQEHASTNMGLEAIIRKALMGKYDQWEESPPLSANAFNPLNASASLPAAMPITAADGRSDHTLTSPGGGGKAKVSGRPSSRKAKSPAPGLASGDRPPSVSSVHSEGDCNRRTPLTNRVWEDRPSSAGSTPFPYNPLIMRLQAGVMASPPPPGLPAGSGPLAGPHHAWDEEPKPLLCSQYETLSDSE

[3] = biological target: Large T antigen (Simian virus 40, UniProt P03070); type: functional, Betapolyomavirus macacae;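 note: Confirmatory-stage PubChem screen for compounds that inhibit SV40 T antigen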
Sequence of Large T antigen (P03070 whole entry): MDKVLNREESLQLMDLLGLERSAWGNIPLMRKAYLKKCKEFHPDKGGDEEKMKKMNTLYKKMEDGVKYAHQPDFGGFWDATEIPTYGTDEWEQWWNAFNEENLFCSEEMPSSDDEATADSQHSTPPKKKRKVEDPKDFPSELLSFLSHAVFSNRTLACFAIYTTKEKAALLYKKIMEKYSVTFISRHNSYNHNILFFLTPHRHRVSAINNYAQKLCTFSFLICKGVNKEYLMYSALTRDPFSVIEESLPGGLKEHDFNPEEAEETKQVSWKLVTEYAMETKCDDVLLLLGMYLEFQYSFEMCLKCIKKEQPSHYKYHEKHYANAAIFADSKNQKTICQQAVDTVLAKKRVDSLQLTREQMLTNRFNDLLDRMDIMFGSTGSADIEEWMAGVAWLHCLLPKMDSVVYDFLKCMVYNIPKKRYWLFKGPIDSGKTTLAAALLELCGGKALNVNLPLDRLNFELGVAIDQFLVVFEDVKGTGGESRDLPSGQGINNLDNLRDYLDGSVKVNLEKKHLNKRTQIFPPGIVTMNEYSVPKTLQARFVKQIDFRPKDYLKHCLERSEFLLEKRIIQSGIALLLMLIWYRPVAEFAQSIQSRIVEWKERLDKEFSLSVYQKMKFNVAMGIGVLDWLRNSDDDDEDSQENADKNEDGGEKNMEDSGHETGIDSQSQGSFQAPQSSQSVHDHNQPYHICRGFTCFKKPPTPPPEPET

[4] = biological target: Likely tRNA 2'-phosphotransferase (Candida albicans (strain SC5314 / ATCC MYA-2876) (Yeast), UniProt Q5A7N4); experiment: TPT1 tRNA phosphotransferase inhibitors, dose response, biochemical, fluorescence polarization (AID 2160)
[5] = biological target: ORF 73 (Human herpesvirus 8, UniProt O40947); experiment: inhibitors of C-LANA binding to LBS DNA, dose response, biochemical, fluorescence polarization, cherry-picked samples (AID 504725); set-up: species or system Human gammaherpesvirus 8;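 note: fluorescence polarization of a labeled DNA duplex reporting LANA DNA binding; potency is for inhibitors that block LANA binding to the DNA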
[6] = biological target: Small ubiquitin-related modifier 1 (Homo sapiens, UniProt P63165); experiment: inhibitors of SUMO1 peptide binding, dose response, biochemical, fluorescence polarization, uHTS hits (AID 624382); type: functional; conditions: read-out: IC50_Mean
Sequence of Small ubiquitin-related modifier 1 (P63165 whole entry): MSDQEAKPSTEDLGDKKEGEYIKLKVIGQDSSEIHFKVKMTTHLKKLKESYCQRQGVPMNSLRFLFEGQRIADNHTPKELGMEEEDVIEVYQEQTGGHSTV

[7] = inhibitors of SNCA 5'UTR-driven reporter translation, confirmation, H4 neuroglioma cells, luminescence (AID 1988); type: functional, cell-based
[8] = biological target: T1, Streptokinase A (Streptococcus pyogenes serotype M1, UniProt P10520); experiment: S. pyogenes streptokinase expression inhibitors, potency, dose response, plasminogen activation absorbance, OD405 (AID 1914); type: functional, Streptococcus pyogenes M1 GAS;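 note: secreted streptokinase activity via plasminogen activation per viability signal from cell pellet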
T1 sequence (P10520 whole entry): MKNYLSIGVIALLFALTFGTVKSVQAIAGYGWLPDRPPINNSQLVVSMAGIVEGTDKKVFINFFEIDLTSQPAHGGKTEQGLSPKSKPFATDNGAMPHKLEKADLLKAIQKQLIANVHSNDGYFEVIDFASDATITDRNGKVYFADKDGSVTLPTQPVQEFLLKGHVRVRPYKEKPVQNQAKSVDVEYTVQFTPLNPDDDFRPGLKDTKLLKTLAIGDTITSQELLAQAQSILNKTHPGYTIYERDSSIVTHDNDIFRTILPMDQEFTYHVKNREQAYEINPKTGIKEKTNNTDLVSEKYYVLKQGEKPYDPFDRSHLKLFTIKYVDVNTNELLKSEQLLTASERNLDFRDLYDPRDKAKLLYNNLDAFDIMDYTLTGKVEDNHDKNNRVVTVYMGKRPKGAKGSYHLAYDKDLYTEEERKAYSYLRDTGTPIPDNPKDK

[9] = biological target: Photoreceptor-specific nuclear receptor (Homo sapiens, UniProt Q9Y5X4); type: functional, cell-based;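 note: CHO-S cells with Gal4-NCOR and VP16-NR2E3 two-hybrid luciferase reporter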
Sequence of Photoreceptor-specific nuclear receptor (Q9Y5X4 whole entry, the tested form may be a part): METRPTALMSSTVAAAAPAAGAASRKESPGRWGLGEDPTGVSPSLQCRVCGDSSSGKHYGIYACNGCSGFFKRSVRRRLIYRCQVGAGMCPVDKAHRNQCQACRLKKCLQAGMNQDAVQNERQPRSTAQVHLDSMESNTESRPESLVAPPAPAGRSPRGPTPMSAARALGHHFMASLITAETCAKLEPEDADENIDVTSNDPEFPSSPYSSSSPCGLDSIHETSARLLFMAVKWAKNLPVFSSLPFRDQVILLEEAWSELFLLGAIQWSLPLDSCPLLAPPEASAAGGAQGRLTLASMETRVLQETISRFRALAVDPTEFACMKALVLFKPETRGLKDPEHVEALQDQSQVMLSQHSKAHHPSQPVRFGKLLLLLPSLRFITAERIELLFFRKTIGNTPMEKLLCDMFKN

[10] = biological target: Paired box protein Pax-8 (Homo sapiens, UniProt Q06710); experiment: inhibitors of PAX8-driven TPO luciferase reporter, dose response, RMG-I cells, cherry-pick (AID 687027); type: functional, cell-based;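 note: luciferase reporter driven by Pax8 target thyroperoxidase promoter measured by SteadyGlo luminescence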
Sequence of Paired box protein Pax-8 (Q06710 whole entry): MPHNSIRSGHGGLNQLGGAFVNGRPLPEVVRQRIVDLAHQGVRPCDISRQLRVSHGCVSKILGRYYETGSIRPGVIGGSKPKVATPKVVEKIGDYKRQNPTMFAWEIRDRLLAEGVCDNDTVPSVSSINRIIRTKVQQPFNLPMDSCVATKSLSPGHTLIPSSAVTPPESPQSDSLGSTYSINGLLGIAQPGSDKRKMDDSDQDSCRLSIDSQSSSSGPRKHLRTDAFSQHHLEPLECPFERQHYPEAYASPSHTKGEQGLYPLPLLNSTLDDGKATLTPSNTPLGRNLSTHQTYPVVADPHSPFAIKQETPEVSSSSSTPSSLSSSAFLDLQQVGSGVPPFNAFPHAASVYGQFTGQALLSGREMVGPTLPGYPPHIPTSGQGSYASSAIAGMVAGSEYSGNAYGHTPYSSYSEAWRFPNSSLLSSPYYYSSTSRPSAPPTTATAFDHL

[11] = biological target: Serine/threonine-protein phosphatase PP1-alpha catalytic subunit (Homo sapiens, UniProt P62136); experiment: PP1 phosphatase inhibitors, dose response, biochemical, fluorescence (AID 2394)
Sequence of Serine/threonine-protein phosphatase PP1-alpha catalytic subunit (P62136 whole entry): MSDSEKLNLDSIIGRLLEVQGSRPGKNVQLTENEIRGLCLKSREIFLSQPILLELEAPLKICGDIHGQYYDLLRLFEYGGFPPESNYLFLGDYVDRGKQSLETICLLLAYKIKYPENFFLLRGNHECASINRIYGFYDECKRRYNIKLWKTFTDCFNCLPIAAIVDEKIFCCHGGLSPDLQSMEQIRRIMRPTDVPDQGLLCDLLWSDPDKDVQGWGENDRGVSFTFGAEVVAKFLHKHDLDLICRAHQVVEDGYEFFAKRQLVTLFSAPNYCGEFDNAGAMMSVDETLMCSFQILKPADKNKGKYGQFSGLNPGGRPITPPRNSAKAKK

[12] = biological target: T2, Caspase-3 (Homo sapiens, UniProt P42574); type: functional;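 note: Dose-response selectivity test against caspase-3 for candidate inhibitors of sentrin-specific proteases (SENPs)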
T2 sequence (P42574 whole entry): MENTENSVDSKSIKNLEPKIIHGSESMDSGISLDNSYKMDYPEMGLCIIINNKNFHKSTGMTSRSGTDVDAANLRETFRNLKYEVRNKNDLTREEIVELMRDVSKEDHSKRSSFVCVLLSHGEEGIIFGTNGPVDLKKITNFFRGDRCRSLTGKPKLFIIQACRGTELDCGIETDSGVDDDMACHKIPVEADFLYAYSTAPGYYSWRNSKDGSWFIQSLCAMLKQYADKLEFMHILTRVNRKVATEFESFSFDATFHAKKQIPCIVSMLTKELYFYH

[13] = biological target: T3, Sentrin-specific protease 6 (Homo sapiens, UniProt Q9GZR1); type: functional;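 note: Luminescence-based dose-response confirmatory assay of SENP6 inhibition, following up an ultra-high-throughput screen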
T3 sequence (Q9GZR1 whole entry): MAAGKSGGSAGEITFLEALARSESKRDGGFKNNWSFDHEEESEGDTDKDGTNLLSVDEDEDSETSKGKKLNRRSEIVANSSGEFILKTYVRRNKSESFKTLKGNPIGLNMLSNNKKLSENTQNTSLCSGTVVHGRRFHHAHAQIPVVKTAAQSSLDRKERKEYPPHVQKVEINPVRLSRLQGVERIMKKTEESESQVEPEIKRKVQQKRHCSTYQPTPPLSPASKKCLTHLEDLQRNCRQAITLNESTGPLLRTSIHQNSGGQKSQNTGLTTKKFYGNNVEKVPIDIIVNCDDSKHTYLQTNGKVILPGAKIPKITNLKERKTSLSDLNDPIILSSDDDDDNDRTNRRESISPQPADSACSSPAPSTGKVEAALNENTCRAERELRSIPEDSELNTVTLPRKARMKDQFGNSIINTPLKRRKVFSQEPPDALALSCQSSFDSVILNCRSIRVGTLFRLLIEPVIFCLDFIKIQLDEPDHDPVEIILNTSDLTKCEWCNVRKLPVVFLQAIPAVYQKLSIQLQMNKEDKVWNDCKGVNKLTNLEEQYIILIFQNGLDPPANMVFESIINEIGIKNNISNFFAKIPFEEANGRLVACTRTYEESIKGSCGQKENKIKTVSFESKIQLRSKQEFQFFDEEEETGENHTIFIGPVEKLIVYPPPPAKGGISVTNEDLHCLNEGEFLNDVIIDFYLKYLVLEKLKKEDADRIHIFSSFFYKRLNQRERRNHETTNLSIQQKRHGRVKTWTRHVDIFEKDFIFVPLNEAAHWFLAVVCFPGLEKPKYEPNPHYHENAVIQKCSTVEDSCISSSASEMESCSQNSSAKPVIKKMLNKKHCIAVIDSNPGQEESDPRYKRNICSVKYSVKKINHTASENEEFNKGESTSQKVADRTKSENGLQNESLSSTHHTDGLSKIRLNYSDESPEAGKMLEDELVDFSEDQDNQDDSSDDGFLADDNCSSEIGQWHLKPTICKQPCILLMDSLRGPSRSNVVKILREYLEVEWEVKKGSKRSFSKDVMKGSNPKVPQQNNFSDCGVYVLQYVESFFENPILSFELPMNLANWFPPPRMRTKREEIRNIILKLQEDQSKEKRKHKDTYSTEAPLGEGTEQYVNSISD

**Q.** For `COC(=O)c1cc(C)nc2c1C(=O)C(=O)C=C2N1CCOCC1`, which EC50 [1] is on record?
**A.** > 16 µM (not active)

**Q.** And the IC50 [2]?
**A.** > 39.8 µM (not active)

**Q.** Which IC50 [3] does the source give for `NS(=O)(=O)c1cc(C(=O)NC2CCSc3ccccc32)ccc1Cl` (stereo not drawn) here?
**A.** 62.1 µM (active)

**Q.** And the IC50 [4]?
**A.** 4.4 µM (active)

**Q.** And the AC50 [5]?
**A.** 10.1 µM (active)

**Q.** And the IC50 [6]?
**A.** 4.11 µM (active)

**Q.** Which results are given for `O=C1c2ccccc2C(=O)c2[nH]c(O)nc21`?
**A.** EC50 [7]: 4.26 µM (active); EC50 [8]: 130 µM (active); IC50 [9]: 4.48 µM (active); AC50 [10]: 5.72 µM (active)

**Q.** For `CCOC(=O)C1=C(C)OC2(O)c3ccccc3C(=O)C12O` (stereo not drawn), which IC50 [11] is on record?
**A.** 49 µM (not active)

**Q.** And the IC50 [12]?
**A.** > 100 µM (inactive)

**Q.** What about the IC50 [13] of the same compound?
**A.** 2.7 µM (active)
